Measured values reported in patent US20060233845A1, “Micro/nanoparticle obtained from lipid-containing marine organisms for use in pharmaceutics and cosmetics” (priority 2002, published 2006).

Columns and labels:
[1] = Kreitlow, Dissertation Greifswald 2000; cited from earlier work
MRSA = MRSA growth in vitro; assay type: cell-based, Staphylococcus aureus; conditions: natural substances after the inventive method

Row | SMILES | antibacterial activity [1] | growth of MRSA in vitro (MRSA)
1 | CCCCCC(O)/C=C/C=C\CCCCCCCC(=O)O (stereo not shown) [coriolic acid] | antibacterial activity | –
2 | CCCCC/C=C/C=C/C(O)CCCCCCCC(=O)O (stereo not shown) [dimorphecolic acid] | antibacterial activity | –
3 | CC/C=C\C/C=C\C/C=C\CCCCCCCC(=O)O [linolenic acid, Z,Z,Z-9,12,15-octadecatrienoic acid] | antibacterial activity | –
4 | Cc1cc(O)cc2oc3cc(O)cc(O)c3c(=O)c12 [norlichexanthone] | – | inhibit MRSA-growth in vitro
